Tested on: Vascular smooth muscle cells (SMCs)
Test: Cytotoxicity of the cationic substances (MTT)
Format: cell-based
Description: Vascular smooth muscle cells (SMCs) were collected and the cell concentration was determined using a hemocytometer. The cell concentration was adjusted to […] using a liquid cell culture medium. The cell suspension was dispensed on a 96-well plate ([…] cells in each well) and the wells were divided into groups (a control group and four test groups), four wells for each group. After the cells were cultivated for 24 hours under regular cell culture conditions, the culture medium was pipetted away. Each of the fresh culture media and culture media respectively containing the suspensions of non-drug loaded nanoparticles prepared in Example 14, Comparative Example 2 and Comparative Example 3 was added (the cationic substance in each of the three examples has a same concentration). After the cells were further cultivated for 24 hours, 50 μL of an MTT agent was dispensed into each well, and the cells were then incubated for 4 hours in a CO2 incubator. After that, the culture media were carefully pipetted away, and 150 μL of dimethyl sulfoxide was added to each well. The plate was then shaken gently to facilitate dissolution of formazan. Absorbance of each well at 490 nm was measured using a microplate reader, and cell survival rates were calculated according to: […]

CCCCCCCC/C=C\CCCCCCCC(=O)OCC(C[N+](C)(C)C)OC(=O)CCCCCCC/C=C\CCCCCCCC.[Cl-] (centres unmarked) [DOTAP, 1,2-dioleoyl-3-trimethylammonium-propane chloride]
Cytotoxicity (in words): does not show noticeable cytotoxicity

CCCCCCCCCCCC[N+](C)(C)CCCCCCCCCCCC.[Br-] [DMAB, didodecyldimethylammonium bromide]
Cytotoxicity (in words): serious cytotoxicity

— patent US12721934B2, “Cationic nanodrug, preparation method therefor, and drug-loaded implantable medical device” (SHANGHAI MICROPORT MEDICAL (GROUP) CO., LTD., priority 2019, dated 2026)
